Data as given in patent publication US11078202B2, “β-lactamase inhibitor and use thereof” (priority 2018, dated 2021).
Counter-ions that a name gives are not always drawn.

Columns and labels:
Type in all cases: cell-based
[1] = test system: Acinetobacter baumannii XNWB 0007; assay: MIC assay of test compounds combined with ceftazidime (8 μg/mL); conditions: ceftazidime 8 μg/mL fixed
Method in brief: (§1)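 Antibiotic potentiation test: compound serially diluted, partner β-lactam at constant concentration, CAMHB medium, saline-standardised inoculum (OD600 0.1-0.15) diluted 300-fold. Incubated 16-20 h at 35±2 °C.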

[2] = test system: Klebsiella pneumoniae XNWB 0001; assay: as above; conditions: ceftazidime 8 μg/mL fixed
Method in brief: as §1

[3] = test system: Klebsiella pneumoniae XNWB 0002; assay: as above; conditions: ceftazidime 8 μg/mL fixed
Method in brief: as §1

[4] = test system: Klebsiella pneumoniae XNWB 0003; assay: as above; conditions: ceftazidime 8 μg/mL fixed
Method in brief: as §1

[5] = test system: Klebsiella pneumoniae XNWB 0004; assay: as above; conditions: ceftazidime 8 μg/mL fixed
Method in brief: as §1

[6] = test system: Klebsiella pneumoniae XNWB 0005; assay: as above; conditions: ceftazidime 8 μg/mL fixed
Method in brief: as §1

[7] = test system: Klebsiella pneumoniae XNWB 0006; assay: as above; conditions: ceftazidime 8 μg/mL fixed
Method in brief: as §1

[8] = test system: Pseudomonas aeruginosa XNWB 0008; assay: as above; conditions: ceftazidime 8 μg/mL fixed
Method in brief: as §1

[9] = test system: Acinetobacter baumannii XNWB 0007; assay: MIC assay of test compounds combined with imipenem (4 μg/mL); conditions: imipenem 4 μg/mL fixed
Method in brief: as §1

[10] = test system: Klebsiella pneumoniae XNWB 0001; assay: as above; conditions: imipenem 4 μg/mL fixed
Method in brief: as §1

[11] = test system: Klebsiella pneumoniae XNWB 0002; assay: as above; conditions: imipenem 4 μg/mL fixed
Method in brief: as §1

[12] = test system: Klebsiella pneumoniae XNWB 0003; assay: as above; conditions: imipenem 4 μg/mL fixed
Method in brief: as §1

[13] = test system: Klebsiella pneumoniae XNWB 0004; assay: as above; conditions: imipenem 4 μg/mL fixed
Method in brief: as §1

[14] = test system: Klebsiella pneumoniae XNWB 0005; assay: as above; conditions: imipenem 4 μg/mL fixed
Method in brief: as §1

[15] = test system: Klebsiella pneumoniae XNWB 0006; assay: as above; conditions: imipenem 4 μg/mL fixed
Method in brief: as §1

[16] = test system: Pseudomonas aeruginosa XNWB 0008; assay: as above; conditions: imipenem 4 μg/mL fixed
Method in brief: as §1

[17] = test system: Enterobacter aerogenes XNWB 0011; assay: MIC assay of test compounds combined with ampicillin (8 μg/mL); conditions: ampicillin 8 μg/mL fixed
Protocol: (§2) The bacterial strains used for the minimum inhibitory concentration (MIC) test were frozen in a −80° C. ULT freezer and thawed 2 days before use. A small amount of frozen bacterial strains were scraped using a sterile inoculating loop, streaked onto a TSA solid culture dish for inoculation, and then cultured for 20-24 h at 35±2° C. in a normal atmospheric environment.
(§3) 5-10 colonies with similar morphology were picked from the culture dish using a sterile inoculating loop and then re-streaked onto a suitable solid culture dish. Then the dish was placed into a normal incubator for culture for 20-24 h at 35±2° C.
(§4) 5-10 single bacterial colonies were picked from the solid culture dish, resuspended in 500 μL of 0.9% NaCl, and adjusted to an OD600 of 0.1-0.15 with a spectrophotometer.
(§5) The bacteria were then diluted 300-fold with 1.1×CAMHB.
(§6) Test compounds of columns A-H: having a highest final test concentration of 64 μg/mL or 32 μg/mL, 2-fold diluted.
(§7) Dilution of test compounds: All test compounds were dissolved and diluted in dimethylsulfoxide (DMSO). 170 μL of 3.2 mg/mL (50*64 μg/mL) compound was transferred to wells (A1-H1) of column 1 of a dilution master plate and then 85 μL of DMSO was transferred to wells of other columns. Each compound was diluted 2-fold in sequence (i.e., 85 μL of compound was pipetted from column 1 into column 2 and mixed uniformly, 85 μL of compound was pipetted from column 2 into column 3 and mixed uniformly, then 85 μL of compound was pipetted from column 3 into column 4 and mixed uniformly, and so on until the dilution was done in column 11).
(§8) Preparation of an additive of ampicillin: Ampicillin was dissolved in ddH2O. 30 μL of 100 μg/mL (12.5×8 μg/mL) ampicillin was transferred to columns 1-11 of an additive plate, followed by the addition of 30 μL of ddH2O to column 12.
(§9) 2 μL of each compound in the dilution master plate of the test compounds was transferred to the corresponding well of the assay plates. In the mean time, 2 μL of 100% DMSO was transferred to the compound-free wells (GC and SC wells). (1) 8 μL of imipenem in the additive plate of imipenem was transferred to the corresponding wells of the assay plates; (2) 8 μL of ceftazidime in the additive plate of ceftazidime was transferred to the corresponding wells of the assay plates; (3) 8 μL of ampicillin in the additive plate of ampicillin was transferred to the corresponding wells of the assay plates.
(§10) 90 μL of corresponding bacterial inocula were added to wells (except for SC wells) of the assay plates.
(§11) After addition, the 6 assay plates were covered by sterile covers. The mixtures in the assay plates were centrifuged by a centrifuge at 1000 rpm for 30 s, and mixed uniformly by oscillating with a microplate oscillator at 800 rpm for 1 min, and then cultured in a common incubator for 16-20 h at 35±2° C.
(§12) The minimum inhibitory concentration of each compound was recorded by reference to guidelines from the Clinical and Laboratory Standards Institute.
(§13) The minimum inhibitory concentrations of the compounds of the present invention and antibiotics (imipenem, ceftazidime, and ampicillin) against 11 strains of bacteria were tested in this study by reference to the medium microdilution method as indicated by the Clinical and Laboratory Standards Institute. The effect of the test compounds in combination with imipenem, ceftazidime, and ampicillin was also tested. Compounds were diluted two-fold in 96-well plates from the highest detection concentration of 64 μg/mL. The test compounds were tested in combination with a fixed concentration of imipenem (4 μg/mL), ceftazidime (8 μg/mL), and ampicillin (8 μg/mL). The bacterial inocula in the assay plates were resuscitated from TSA and diluted in CAMHB, while growth controls (GC wells) and sterile controls (SC wells) were set up in the assay plates. […]

[18] = test system: Escherichia coli XNWB 0009; assay: as above; conditions: ampicillin 8 μg/mL fixed
Protocol: as §2, §3, §4, §5, §6, §7, §8, §9, §10, §11, §12, §13

[19] = test system: Escherichia coli XNWB 0010; assay: as above; conditions: ampicillin 8 μg/mL fixed
Protocol: as §2, §3, §4, §5, §6, §7, §8, §9, §10, §11, §12, §13

SMILES	The minimum concentration of test compounds combined with ceftazidime (8 μg/mL) for bacteriostasis [1]	The minimum concentration of test compounds combined with ceftazidime (8 μg/mL) for bacteriostasis [2]	The minimum concentration of test compounds combined with ceftazidime (8 μg/mL) for bacteriostasis [3]	The minimum concentration of test compounds combined with ceftazidime (8 μg/mL) for bacteriostasis [4]	The minimum concentration of test compounds combined with ceftazidime (8 μg/mL) for bacteriostasis [5]	The minimum concentration of test compounds combined with ceftazidime (8 μg/mL) for bacteriostasis [6]	The minimum concentration of test compounds combined with ceftazidime (8 μg/mL) for bacteriostasis [7]	The minimum concentration of test compounds combined with ceftazidime (8 μg/mL) for bacteriostasis [8]	The minimum concentration of test compounds combined with imipenem (4 μg/mL) for bacteriostasis [9]	The minimum concentration of test compounds combined with imipenem (4 μg/mL) for bacteriostasis [10]	The minimum concentration of test compounds combined with imipenem (4 μg/mL) for bacteriostasis [11]	The minimum concentration of test compounds combined with imipenem (4 μg/mL) for bacteriostasis [12]	The minimum concentration of test compounds combined with imipenem (4 μg/mL) for bacteriostasis [13]	The minimum concentration of test compounds combined with imipenem (4 μg/mL) for bacteriostasis [14]	The minimum concentration of test compounds combined with imipenem (4 μg/mL) for bacteriostasis [15]	The minimum concentration of test compounds combined with imipenem (4 μg/mL) for bacteriostasis [16]	The minimum concentration of test compounds combined with ampicillin (8 μg/mL) for bacteriostasis [17]	The minimum concentration of test compounds combined with ampicillin (8 μg/mL) for bacteriostasis [18]	The minimum concentration of test compounds combined with ampicillin (8 μg/mL) for bacteriostasis [19]
O=C1N2C[C@H](N1OS(=O)(=O)O)C1(CC1)C[C@H]2c1nnc(CNC2CNC2)o1 [Example 14, (1R,4S)-4-(5-((azetidin-3-ylamino)methyl)-1,3,4-oxadiazol-2-yl)-6-oxo-5,7-diazaspiro [bicyclo[3.2.1]octane-2,1′-cyclopropan]-7-yl sulfate]	C (C: 16-128 μg/mL)	A (A: <8 μg/mL)	A (A: <8 μg/mL)	B (B: 8-16 μg/mL)	B (B: 8-16 μg/mL)	B (B: 8-16 μg/mL)	A (A: <8 μg/mL)	C (C: 16-128 μg/mL)	C (C: 16-128 μg/mL)	A (A: <8 μg/mL)	A (A: <8 μg/mL)	A (A: <8 μg/mL)	A (A: <8 μg/mL)	A (A: <8 μg/mL)	A (A: <8 μg/mL)	B (B: 8-16 μg/mL)	B (B: 8-16 μg/mL)	A (A: <8 μg/mL)	4 µg/mL
O=C1N2C[C@H](N1OS(=O)(=O)O)C1(CC1)C[C@H]2c1cc(C2CCNCC2)on1 [Example 43, (1R,4S)-6-oxo-4-(5-(piperidin-4-yl)isoxazol-3-yl)-5,7-diazaspiro[bicyclo[3.2.1]octane-2,1′-cyclopropan]-7-yl sulfate]	C (C: 16-128 μg/mL)	A (A: <8 μg/mL)	A (A: <8 μg/mL)	B (B: 8-16 μg/mL)	B (B: 8-16 μg/mL)	A (A: <8 μg/mL)	A (A: <8 μg/mL)	B (B: 8-16 μg/mL)	C (C: 16-128 μg/mL)	A (A: <8 μg/mL)	A (A: <8 μg/mL)	A (A: <8 μg/mL)	A (A: <8 μg/mL)	A (A: <8 μg/mL)	A (A: <8 μg/mL)	A (A: <8 μg/mL)	B (B: 8-16 μg/mL)	A (A: <8 μg/mL)	A (A: <8 μg/mL)
NCCc1nnc([C@@H]2CC3(CC3)[C@@H]3CN2C(=O)N3OS(=O)(=O)O)o1 [Example 4, (1R,4S)-4-(5-(2-aminoethyl)-1,3,4-oxadiazol-2-yl)-6-oxo-5,7-diazaspiro[bicycle[3.2.1]octane-2,1′-cyclopropan]-7-yl sulfate]	C (C: 16-128 μg/mL)	A (A: <8 μg/mL)	A (A: <8 μg/mL)	A (A: <8 μg/mL)	A (A: <8 μg/mL)	A (A: <8 μg/mL)	A (A: <8 μg/mL)	C (C: 16-128 μg/mL)	B (B: 8-16 μg/mL)	A (A: <8 μg/mL)	A (A: <8 μg/mL)	A (A: <8 μg/mL)	A (A: <8 μg/mL)	A (A: <8 μg/mL)	A (A: <8 μg/mL)	A (A: <8 μg/mL)	B (B: 8-16 μg/mL)	A (A: <8 μg/mL)	A (A: <8 μg/mL)
